{"source": "patent US10306886B2", "about": "“Lactam solubility” (Conopco, Inc., priority 2015, dated 2019)", "assay": "Lactam solubility in water or water+alcohol (48 hours agitation, filtration, HPLC quantification)", "format": "physicochemical", "design": "key to Solubility Increase vs water alone: fold increase in dissolved lactam relative to water alone", "description": "Excess solid lactam (˜3 mg) was placed in a Whatman® Mini Uniprep sample vial, fitted with a 0.45 μm nylon filter. Water or water+alcohol (500 μL) was added the mixture shaken and tapped briefly to initially disperse the solid and the mixture then agitated for 48 hours using a plate shaker fitted with a vial holder (see image below). After 48 hours, the solid was removed from the system by pressing down the plunger with integral filter on the vial (see image below). This removes the solid and provides filtered solution within the inner chamber which is then ready for analysis.\nThe level of lactam dissolved in solution was quantified using HPLC analysis. Samples were analysed on an Agilent 1200® series HPLC fitted with a Thermo Hypersil® Gold C18 column (15×2.1×3 μm), isocratic elution with 60/40 methanol/water (+0.1% Formic Acid), 0.4 mL/min flow rate, using a DAD detector at 285 nm. 4-(4-chlorophenyl)-5-methylene-pyrrol-2-one has a retention time of ˜2.8 minutes.\nThe absolute level of lactam in solution is measured and reported as an increase in solubility of lactam relative to water alone.", "data": [{"compound": "C=C1NC(=O)C=C1c1ccc(Cl)cc1", "note": "[4-(4-chlorophenyl)-5-methylene-pyrrol-2-one]", "values": [{"measurement": "Mean Lactam Level in Solution", "setting": "EtOH 0% in water", "value": 6.2, "unit": "ppm"}, {"measurement": "Solubility Increase vs water alone", "setting": "EtOH 0% in water", "value": 1.00}, {"measurement": "Mean Lactam Level in Solution", "setting": "EtOH 0.5% in water", "value": 7.9, "unit": "ppm"}, {"measurement": "Solubility Increase vs water alone", "setting": "EtOH 0.5% in water", "value": 1.27}, {"measurement": "Mean Lactam Level in Solution", "setting": "EtOH 1% in water", "value": 8.9, "unit": "ppm"}, {"measurement": "Solubility Increase vs water alone", "setting": "EtOH 1% in water", "value": 1.44}, {"measurement": "Mean Lactam Level in Solution", "setting": "EtOH 2% in water", "value": 10.7, "unit": "ppm"}, {"measurement": "Solubility Increase vs water alone", "setting": "EtOH 2% in water", "value": 1.73}, {"measurement": "Mean Lactam Level in Solution", "setting": "EtOH 5% in water", "value": 13.4, "unit": "ppm"}, {"measurement": "Solubility Increase vs water alone", "setting": "EtOH 5% in water", "value": 2.16}, {"measurement": "Mean Lactam Level in Solution", "setting": "EtOH 10% in water", "value": 18.3, "unit": "ppm"}, {"measurement": "Solubility Increase vs water alone", "setting": "EtOH 10% in water", "value": 2.95}, {"measurement": "Mean Lactam Level in Solution", "setting": "EtOH 25% in water", "value": 82.1, "unit": "ppm"}, {"measurement": "Solubility Increase vs water alone", "setting": "EtOH 25% in water", "value": 13.24}, {"measurement": "Mean Lactam Level in Solution", "setting": "EtOH 50% in water", "value": 1800.2, "unit": "ppm"}, {"measurement": "Solubility Increase vs water alone", "setting": "EtOH 50% in water", "value": 290.35}, {"measurement": "Mean Lactam Level in Solution", "setting": "Glycerol 0% in water", "value": 5.7, "unit": "ppm"}, {"measurement": "Solubility Increase vs water alone", "setting": "Glycerol 0% in water", "value": 1.00}, {"measurement": "Mean Lactam Level in Solution", "setting": "Glycerol 0.5% in water", "value": 1.7, "unit": "ppm"}, {"measurement": "Solubility Increase vs water alone", "setting": "Glycerol 0.5% in water", "value": 0.29}, {"measurement": "Mean Lactam Level in Solution", "setting": "Glycerol 1% in water", "value": 2.3, "unit": "ppm"}, {"measurement": "Solubility Increase vs water alone", "setting": "Glycerol 1% in water", "value": 0.41}, {"measurement": "Mean Lactam Level in Solution", "setting": "Glycerol 2% in water", "value": 3.1, "unit": "ppm"}, {"measurement": "Solubility Increase vs water alone", "setting": "Glycerol 2% in water", "value": 0.54}, {"measurement": "Mean Lactam Level in Solution", "setting": "Glycerol 5% in water", "value": 5.2, "unit": "ppm"}, {"measurement": "Solubility Increase vs water alone", "setting": "Glycerol 5% in water", "value": 0.91}, {"measurement": "Mean Lactam Level in Solution", "setting": "Glycerol 10% in water", "value": 9.0, "unit": "ppm"}, {"measurement": "Solubility Increase vs water alone", "setting": "Glycerol 10% in water", "value": 1.59}, {"measurement": "Mean Lactam Level in Solution", "setting": "Glycerol 25% in water", "value": 15.8, "unit": "ppm"}, {"measurement": "Solubility Increase vs water alone", "setting": "Glycerol 25% in water", "value": 2.77}, {"measurement": "Mean Lactam Level in Solution", "setting": "Glycerol 50% in water", "value": 95.3, "unit": "ppm"}, {"measurement": "Solubility Increase vs water alone", "setting": "Glycerol 50% in water", "value": 16.72}, {"measurement": "Mean Lactam Level in Solution", "setting": "MeOH 0% in water", "value": 6.2, "unit": "ppm"}, {"measurement": "Solubility Increase vs water alone", "setting": "MeOH 0% in water", "value": 1.00}, {"measurement": "Mean Lactam Level in Solution", "setting": "MeOH 0.5% in water", "value": 7.5, "unit": "ppm"}, {"measurement": "Solubility Increase vs water alone", "setting": "MeOH 0.5% in water", "value": 1.20}, {"measurement": "Mean Lactam Level in Solution", "setting": "MeOH 1% in water", "value": 9.0, "unit": "ppm"}, {"measurement": "Solubility Increase vs water alone", "setting": "MeOH 1% in water", "value": 1.45}, {"measurement": "Mean Lactam Level in Solution", "setting": "MeOH 2% in water", "value": 8.2, "unit": "ppm"}, {"measurement": "Solubility Increase vs water alone", "setting": "MeOH 2% in water", "value": 1.32}, {"measurement": "Mean Lactam Level in Solution", "setting": "MeOH 5% in water", "value": 10.4, "unit": "ppm"}, {"measurement": "Solubility Increase vs water alone", "setting": "MeOH 5% in water", "value": 1.67}, {"measurement": "Mean Lactam Level in Solution", "setting": "MeOH 10% in water", "value": 15.7, "unit": "ppm"}, {"measurement": "Solubility Increase vs water alone", "setting": "MeOH 10% in water", "value": 2.52}, {"measurement": "Mean Lactam Level in Solution", "setting": "MeOH 25% in water", "value": 48.8, "unit": "ppm"}, {"measurement": "Solubility Increase vs water alone", "setting": "MeOH 25% in water", "value": 7.87}, {"measurement": "Mean Lactam Level in Solution", "setting": "MeOH 50% in water", "value": 315.6, "unit": "ppm"}, {"measurement": "Solubility Increase vs water alone", "setting": "MeOH 50% in water", "value": 50.90}]}]}
